Experimental data from patent publication US20220193241A1, “AGENT TARGETING DOUBLE-MEMBRANE ORGANELLE DNA” (CHIBA-PREFECTURE, priority 2019, published 2022).

What was measured:
[1] = Skin penetrability confirmation experiment (anti-TPP immunohistochemical staining); assay type: in vivo, mice ICR; settings: 18 hours
Experimental: Outbred mice ICR were purchased from Oriental Yeast Co., Ltd. The experiment was conducted by the administration of linear-chain PIP-TPP (CCC149-TPP) having a molecular weight of 1274.7 to the mouse back. The back skin of each 5-week-old ICR mouse was shaved. After confirmation that the hair growth cycle was not reached, DMSO containing no PIP-TPP, and solutions of PIP-TPP (dissolved in DMSO, dissolved in 95% DMSO/5% laurocapram (transdermal absorption promoter) and dissolved in 95% DMSO/5% laurocapram 24 hours after stratum corneum removal) adjusted so as to attain 30 mg/cm^2 were applied to 4 locations, respectively, of the back as shown in FIG. 28 at the age of 6 weeks. 18 hours later, the mouse was euthanized, and skin tissues were obtained and fixed in 4% paraformaldehyde. Then, paraffin blocks were prepared and co-stained by immunohistochemical staining with an anti-TPP antibody and DAPI staining of the nucleus to test the skin penetrability of the drug into cells and subcutaneous tissues.

[2] = system: C33A; experiment: WST cell proliferation assay of library compounds; assay type: cell-based; settings: Homo sapiens, C-33-A, 120 h, 5 days
Experimental: (§1) This compound can recognize the T4216C mutation of mitochondrial ND1 gene, and a uterine cervical cancer cell line C33A has this mutation. Cell proliferation assay with wild-type HeLa cells, which is also a uterine cervical cancer cell line, was conducted in the same manner as in Example 1. 1000 cells were inoculated to a 96-well plate, and CCC1283-TPP was administered at 0.5, 1, 5, 10, and 20 μM. 5 days later, WST assay was conducted.
as §1, with “CCCh531-TPP” for “CCC1283-TPP”
(§2) Compound CCCh560-TPP with a decacyclic structure targeting the A8860G polymorphism of mitochondrial gene ATP6 found in human populations, not acquired mitochondrial mutations in somatic cells, was studied for whether the suppression of cell proliferation was also found by 5-day treatment with the compound for the mitochondrial DNA polymorphism in cancer cell lines C33A, HeLa, Siha, Caski, and ME180 having this polymorphism in homoplasmy and human nontumor skin-derived fibroblast HDF cells. For this purpose, cell proliferation assay was conducted in the same manner as in Example 1. 1000 cells were inoculated to a 96-well plate, and CCCh560-TPP was administered at 0.5, 1, 5, 10, and 20 μM. 5 days later, WST assay was conducted.

[3] = system: HeLa cells; experiment: WST cell proliferation assay of library compounds; assay type: cell-based; settings: Homo sapiens, 120 h, 5 days
Experimental: as §1
as §1, with “CCCh531-TPP” for “CCC1283-TPP”
as §2

[4] = system: A549 cells; experiment: Synthetic lethality: cell morphology with CCC021-TPP and ABT-199 or A1155463; assay type: cell-based; settings: single administration: 20 μM CCC021-TPP, 10 μM ABT-199, 10 μM A1155463; 4 days
Experimental: It was confirmed with the BCL2- and BCL-XL-specific inhibitor that the suppression of cell death in the cellular senescence of the A549 cells was presumably due to the BCL pathway. The type of BCL pathway inhibition, combined use of which could induce cell death (apoptosis) in the senescent cells of the A549 cells was studied. Five hundred A549 cells were inoculated to a 96-well plate and cultured for 24 hours. Then, change in cell morphology was photographed under an optical microscope either without administration (i.e., after DMSO treatment) or 4 days after treatment with 20 μM CCC021-TPP and 10 μM BCL2 inhibitor ABT-199 (compound venetoclax of No. 33 in FIG. 55-10) or 10 μM BCL-XL inhibitor A1155463 (compound of No. 16 in FIG. 55-6) each alone, or treatment by combined use of the same concentration of CCC021-TPP with the same concentration of ABT-199 or A1155463.

[5] = system: 3243G Low cells; experiment: Total mitochondrial DNA copy number by PCR of COII gene; assay type: cell-based, human; settings: 1 μM and 5 μM, 48- or 63-day treatment
Experimental: (§3) The 3243G Low cells were inoculated at 2×10^4 cells/well to a 35 mm dish (Falcon, USA), cultured for 24 hours, and then treated with CCC019-TPP (final concentration: 1 μM and 5 μM). The medium was replaced once two days, and CCC019-TPP was continuously administered. Further, 48 and 63 days later, DNA was extracted using Allprep DNA/RNA Mini Kit (QIAGEN, Germany) according to the instruction manual. The yield of the DNA thus extracted was measured using NANODROP 2000c (Thermo Fisher Scientific). DNA samples were prepared, and PCR reaction and analysis were conducted. The primers and reaction conditions used are shown below.
(§4) The reaction conditions were as follows.
After the completion of PCR reaction, PCR products were electrophoresed on 2% agarose gel and then stained with ethidium bromide to detect bands of the PCR products. The bands were quantified with analytical software (Image J).
In order to predict the total copy number of mtDNA in the 3243G Low cells treated with CCC019-TPP for 48 or 63 days, COII gene constituting mitochondrial respiratory chain complex IV was subjected to PCR.

[6] = system: 3243G Low cells; experiment: Ratio between normal mtDNA and mutant mtDNA by PCR-RFLP; assay type: cell-based, human; settings: 1 μM and 5 μM, 48- or 63-day treatment
Experimental: as §3, with “(Falcon),” for “(Falcon, USA),”, “(QIAGEN)” for “(QIAGEN, Germany)”, “2000™” for “2000c”, “was” for “and analysis were”
as §4
PCR products were treated with restriction enzyme ApaI as described below, and analyzed. The PCR products were purified using QIAquick PCR Purification Kit (QIAGEN) according to the instruction manual. After the purification, the yield of DNA was measured using NANODROP 2000c (Thermo Fisher Scientific). After the measurement, reaction products amplified in PCR System 9700 (Applied Biosystems, USA) GeneAmp(R) were treated with restriction enzyme Apal at 37° C. for 5 hours. After the completion of reaction, 15 ng of samples was electrophoresed on 2% agarose gel and then stained with ethidium bromide to detect bands of the PCR products. The bands were quantified with analytical software (Image J). […]

[7] = system: 3243G High cells; experiment: Mitochondrial autophagy (LC3 / cytochrome C immunostaining); assay type: cell-based, human; settings: 100 nM, 52 hours after treatment
Experimental: In order to study whether the decrease in the number of mutant mtDNA by PIP-TPP was caused by mitochondrial autophagy reaction, the following experiment was conducted. The mtDNA mutation cell line 3243G High cells were inoculated at 2×10^4 cells/dish to a 35 mm glass base dish (IWAKI), cultured for 24 hours, and then treated with the compound (final concentration: 100 nM). 52 hours after treatment, the cells were fixed with 4% paraformaldehyde (PFA)/PBS at room temperature for 30 minutes. The cells thus fixed were washed with PBS and blocked with 10% FBS/0.1% Triton X100/TBS (TBST) for 10 minutes. TBS is a mixed solution of sodium chloride (final concentration: […]) and Tris (pH 7.4) (final concentration: […]). After the completion of blocking, the cells were reacted overnight at 4° C. with primary antibodies diluted with TBST. The primary antibodies used were a rabbit anti-LC3 antibody (Cell Signaling Technology, Inc.) diluted at 1:200, and a mouse anti-cytochrome C antibody (Thermo Fisher Scientific, USA) diluted at 1:500. After the completion of reaction with the primary antibodies, the cells were washed three times with TBS and reacted for 15 minutes with secondary antibodies diluted with TBST, i.e., Goat anti Rabbit Oregon Green 488 (Invitrogen) diluted at 1:1000 and Goat anti Mouse Alexa Fluor 647 (Invitrogen) diluted at 1:1000. […]

[8] = system: A549 cells; experiment: Synthetic lethality: cell morphology with CCC021-TPP and ABT-263; assay type: cell-based; settings: each used alone: 20 μM CCC021-TPP, 10 μM ABT-263; days 2 and 4
Excerpt: Since the suppression of cell death in the cellular senescence of the A549 cells was presumably due to the BCL pathway, it was believed that the apoptosis of cells whose cellular senescence was evoked by CCC021-TPP could be induced by combined use with ABT-263 (Cayman Chemical Company) serving as a senolytic drug and a BCL pathway inhibitor. Thus, the possibility of inducing the cell death of senescent cells by CCC021-TPP treatment and combined use with the BCL2/BCL-XL inhibitor ABT-263 was observed under an optical microscope to observe change in cell morphology. Five hundred A549 cells were inoculated to a 96-well plate, cultured for 24 hours, and then observed over time under an optical microscope either without administration or after administration of 20 μM CCC021-TPP and 10 μM ABT-263 each used alone or used concurrently, and cell morphology was photographed on days 2 and 4.

CN(C)CCCNC(=O)CCNC(=O)c1cc(NC(=O)c2nc(NC(=O)CCNC(=O)c3nc(NC(=O)c4cc(NC(=O)c5nc(NC(=O)CCNC(=O)CCCC[P+](c6ccccc6)(c6ccccc6)c6ccccc6)cn5C)cn4C)cn3C)cn2C)cn1C [CCC149-TPP]
skin penetrability (anti-TPP stain) ([1]; 95% DMSO/5% laurocapram (transdermal absorption promoter)): stain of TPP was found in the perikaryon of subcutaneous tissues
skin penetrability (anti-TPP stain) ([1]; applied to back skin, dissolved in DMSO): present in skin basement membrane cells
skin penetrability (anti-TPP stain) ([1]; stratum corneum removal and 95% DMSO/5% laurocapram): more clearly found into the subcutaneous tissues and muscular coat

CN(C)CCCNC(=O)CCNC(=O)c1cc(NC(=O)c2cc(NC(=O)c3nc(NC(=O)CCNC(=O)c4cc(NC(=O)c5cc(NC(=O)CCCNC(=O)c6nc(NC(=O)c7cc(NC(=O)CCNC(=O)c8cc(NC(=O)c9cc(NC(=O)c%10nc(NC(=O)CCNC(=O)CC[P+](c%11ccccc%11)(c%11ccccc%11)c%11ccccc%11)cn%10C)cn9C)cn8C)cn7C)cn6C)cn5C)cn4C)cn3C)cn2C)cn1C [CCCh531-TPP]
IC50 [2]: 3.34 µM
IC50 [3]: 11.8 µM

CN(C)CC#Cc1ccc(OCCCc2sc(N3CCc4cccc(C(=O)Nc5nc6ccccc6s5)c4C3)nc2C(=O)O)c(F)c1 [A1155463, reference compound]
cell death (morphology) [4]: Any finding indicating cell death was not obtained

CN(C)CCCNC(=O)CCNC(=O)c1nc(NC(=O)c2nc(NC(=O)CCNC(=O)c3cc(NC(=O)c4nc(NC(=O)c5nc(NC(=O)CCCNC(=O)c6cc(NC(=O)c7cc(NC(=O)c8nc(NC(=O)CCNC(=O)c9cc(NC(=O)c%10cc(NC(=O)CCNC(=O)CCCC[P+](c%11ccccc%11)(c%11ccccc%11)c%11ccccc%11)cn%10C)cn9C)cn8C)cn7C)cn6C)cn5C)cn4C)cn3C)cn2C)cn1C [CCC019-TPP]
total copy number of mtDNA [5]: tendency to increase the total copy number of mtDNA
ratio between normal mtDNA and mutant mtDNA [6]: tendency to increase the proportion of wild-type mitochondrial DNA and decrease the proportion of mutant mitochondrial DNA

CC(=O)Nc1cn(C)c(C(=O)Nc2cn(C)c(C(=O)Nc3cn(C)c(C(=O)NCCC(=O)Nc4cc(C(=O)Nc5cc(C(=O)NCCCC(=O)Nc6cn(C)c(C(=O)Nc7cn(C)c(C(=O)Nc8cn(C)c(C(=O)NCCC(=O)Nc9cc(C(=O)Nc%10cc(C(=O)NCCC(=O)NCCCN(C)C)n(C)c%10)n(C)c9)n8)n7)n6)n(C)c5)n(C)c4)n3)n2)n1 [CCC018-TPP]
colocalization of autophagic marker LC3 with mitochondria (mitophagy) [7]: colocalization of the autophagic effect with mitochondria was clearly observed

CC1(C)CCC(c2ccc(Cl)cc2)=C(CN2CCN(c3ccc(C(=O)NS(=O)(=O)c4ccc(N[C@H](CCN5CCOCC5)CSc5ccccc5)c(S(=O)(=O)C(F)(F)F)c4)cc3)CC2)C1 [ABT-263, Navitoclax (ABT-263), reference compound]
cells that underwent apoptosis (morphology) [8]: not detected
